The test system of one assay is D. vulgaris biofilms. In words: Photodynamic disinfection of well-plate biofilms, broadband light, anaerobic (Example XI). Type of assay: cell-based, Desulfovibrio vulgaris. The conditions noted are these: 0.1% w/v, 30 seconds, then 60 seconds broadband illumination (150 watt haloid lamp). How it is done:
(§1) In this study, biofilms of sulfate reducing bacteria were treated with photodynamic disinfection as in Example X above. In these experiments, however, illumination of the biofilms was performed using a broadband (wide wavelength) light source instead of a laser. […] For the broadband light photodynamic disinfection exposures, biofilms of D. vulgaris and D. sulfuricans were grown on the inner surface of flat-bottomed 96-well plates. In brief, 50 μl of liquid inoculum in log growth phase was added to each well, and plates were then incubated (37° C.) on an […] shaker at 125 rpm for 48 hours in order to allow biofilm growth. […] After this growth period, plates were removed from the shaker into an anaerobic cabinet, where all photodynamic disinfection treatments were performed. […] Raw surviving colony counts for each experimental condition were averaged and back-calculated given dilution factor to give data in CFU/ml. The data was presented as CFU/ml of surviving organisms after treatment, and kill rate was calculated as this value in experimental samples vs. control (no light, no photosensitizer) and expressed as both a log and percentage reduction in viability. […]

Assay [1] deals with D. desulfuricans biofilms. The description is as above. The conditions noted are these: 0.1%, then 60 second broadband illumination. It is filed as cell-based, Desulfovibrio desulfuricans. The procedure:
as §1

Assay [2] deals with D. desulfuricans (ATCC#14563) biofilms. Kind of assay: Photodynamic disinfection of peg biofilms, 670 nm laser, anaerobic (Example X). Type of assay: cell-based, Desulfovibrio desulfuricans. To be noted: control: methylene blue formulation alone, no laser light.
Assay [3] has as its system Desulfovibrio vulgaris (ATCC#29579). In words: In vitro photodynamic disinfection of planktonic bacteria, aerobic and anaerobic (Example IX). Type of assay: cell-based. The procedure: An in vitro photodynamic disinfection model was used to evaluate antibacterial efficacy against a strain of bacteria commonly found in biofilms growing on the inner surface of industrial oil and gas pipelines. […] This organism is a facultative anaerobe, and typically grows in nature in environments that contain little or no oxygen. Thus, prior to the experiments the bacteria was grown on pre-reduced solid media (brucella blood agar enriched with haemin and vitamin K) at 37° C. under anaerobic conditions. The exposures to photodynamic disinfection were run in both anaerobic and aerobic conditions in order to determine the importance of local oxygen during the photoreaction. […] In addition, several experimental conditions were run in the presence of L-tryptophan, which is a known scavenger of singlet oxygen and other oxygen derived free radicals. The addition of L-tryptophan was designed to test whether the antimicrobial killing effect of photodynamic disinfection was in fact dependent on the generation of reactive forms of oxygen. […] In addition, controls consisting of exposure to either photosensitizer or illumination alone were run to ensure that neither of these variables contributed to bacterial killing on their own. For these photodynamic disinfection experiments, log phase planktonic bacterial inoculum was prepared to a concentration of 10^7 colony-forming units per milliliter (CFU/ml) in a buffered saline solution. […] After illumination, samples were serially diluted and plated on tryptic soy agar for 48 hours at 37° C. Raw surviving colony counts for each experimental condition were averaged and back-calculated given dilution factor to give data in CFU/ml. The data was presented as CFU/ml of surviving organisms after treatment, and kill rate was calculated as this value in experimental samples vs. control (no light, no photosensitizer) and expressed as both a log and percentage reduction in viability. The entire experimental protocol was performed in the dark, and all samples were exposed and plated one at a time to limit ambient light exposure and to maintain the exposure time of bacteria to test solution uniform across all replicates. All experimental and control conditions were run in triplicate for each individual experiment, and experiments were performed on three separate occasions to verify reproducibility.

Assay [4] concerns D. vulgaris (ATCC#29579) biofilms. Kind of assay: Photodynamic disinfection of peg biofilms, 670 nm laser, anaerobic (Example X). Type of assay: cell-based, Desulfovibrio vulgaris. To be noted: control: methylene blue formulation alone, no laser light.
The test system is the same in assay [5]. Kind of assay: Treatment of peg biofilms with chemical disinfectant, anaerobic (Example X). Type of assay: cell-based, Desulfovibrio vulgaris. How it is done:
(§2) Homogenous biofilms of the sulfate reducing organisms D. vulgaris (ATCC#29579) and D. desulfuricans (ATCC#14563) were grown on hard plastic pegs using a previously published protocol and system (Innovotech, Calgary, Canada). Briefly, bacterial suspensions of D. vulgaris and D. desulfuricans consisting of 10^8 CFU/ml were prepared in modified Barrs medium for sulfate reducers (ATCC), then diluted 1:40. 200 μl of this inoculum was added to each well of a 96-well plate. 96-peg lids were then placed into the wells and the assembly was incubated at 37° C. on an Excella E2 gyrorotary shaker (Fisher Scientific) at 125 rpm for 24 hours. For both biofilm protocols, all inoculum and plates were prepared and incubated anaerobically. During the incubation period, the visible formation of an insoluble black residue in each well indicated bacterial metabolism, and after incubation a visible biofilm was evident on each pegs.
(§3) For treatment of biofilms with benzalkonium chloride (BAC), biofilms grown on pegs as described above were used. 96-peg lids were removed from the bacterial inoculum after 24 hours of incubation, and rinsed twice to remove any free-floating organisms by placing the peg lid in 96-well plates containing 300 μl of sterile water. Pegs were then placed in aqueous solutions containing either 0% (water only control), 0.01%, 0.1%, or 1% BAC for 30 seconds. After this exposure pegs were immediately placed in recovery media and processed/plated as described above for enumeration of surviving organisms. All BAC exposure conditions were run in triplicate in anaerobic conditions for each organism.

Assay [6] deals with D. desulfuricans (ATCC#14563) biofilms. The assay is described as above. Type of assay: cell-based, Desulfovibrio desulfuricans. How it is done: as §2, §3
Setting [7] is: aerobic, 0.01% w/v aqueous methylene blue, 670 nm diode laser 20.6 J/cm2 (60 seconds), planktonic.
The mark [8] stands for this setting: anaerobic, 0.01% w/v aqueous methylene blue, 670 nm laser 20.6 J/cm2, planktonic.
Where [9] appears, read: 30 second exposure to 0.01% aqueous solution.
[10] abbreviates: 30 second exposure to 0.1% aqueous solution.
Setting [11] is: 30 second exposure to 1% aqueous solution.

As for `CN(C)c1ccc2nc3ccc(=[N+](C)C)cc-3sc2c1` [methylene blue], the “decrease in viability compared to non-treated control” value in the assay on D. vulgaris biofilms is 1.5 log10. For the same compound, the inhibition at 0.1 % strength with D. vulgaris biofilms (Nitratidesulfovibrio vulgaris, read-out: decrease in viability compared to non-treated control) is around 95%. The reduction in viability entry in assay [1] is “did not result in a significant reduction in viability”. The “reduction in biofilm viability” value in assay [2] and in assay [4] was “Neither the methylene blue formulation nor the laser light alone led to any significant reduction” in each case. The figures for the killing in assay [3] (setting [7]) and in assay [3] (setting [8]) were above 99.99% and above 99.9%, respectively. Moreover, the “log10 reduction in viability vs. non-treated controls” value is on record as 4.4±2.3 log10 in assay [3] (setting [7]) and 1.7±0.6 log10 in assay [3] (aerobic, 0.01% w/v methylene blue with 20 mM L-tryptophan, 670 nm laser 20.6 J/cm2, planktonic). Further, the “log10 reduction vs. non-treated control” value in assay [3] (setting [8]) amounted to 3.5±0.8 log10. The “log10 reduction from non-treated control” value in assay [3] (anaerobic, 0.01% w/v methylene blue with 20 mM L-tryptophan, 670 nm laser 20.6 J/cm2, planktonic) came to 2.5±2.1 log10. Further, in assay [3] (control: photosensitizer composition alone, no illumination), the antibacterial action result is given as “No significant antibacterial action”.

As to benzalkonium chloride [BAC], the “reduction in viability vs. non-treated control” value in assay [5] (setting [9]) is on record as 0.5 log10; in assay [5] (setting [10]), 1.4 log10; in assay [5] (setting [11]), 1.5 log10; in assay [6] (setting [9]) it was 0.6 log10; in assay [6] (setting [10]) it was 2.7 log10; in assay [6] (setting [11]) it was 1.9 log10.

Source of the values: patent publication US20090317293A1, “METHOD AND DEVICE FOR ELIMINATING MICROBES WITHIN INDUSTRIAL PIPELINES” (BioCorrosion Solutions Inc., priority 2008, published 2009).
